# Patent US5380715A, “Ap4 A as a hypotensive agent” (Fujirebio Inc., priority 1992, dated 1995)
# Read-outs that look alike come from different tables or passages of the source.
# Tests used:
# [1] = test system: rabbit platelet aggregation; assay: Inhibitory effect on rabbit platelet aggregation; type: cell-based; settings: rabbit PRP
# Protocol: Fresh blood samples were collected from male Japanese white rabbits weighing 2-3 kg. Blood was anticoagulated with citric acid (1 ml 3.8% citric acid solution +9 ml blood). These samples were centrifuged at room temperature for 20 min at 200×g to obtained platelet-rich plasma (PRP). Furthermore, the supernatant liquid was centrifuged for 10 min at 1500×g to obtained platelet-poor plasma (PPP). Aggregation of platelests was measured photometrically in a Nihon Kohden hema tracer equipped with a mechanical stirring device and with a chart record. At this time, the chart recorder was calibrated as follows: the light transmission obtained with PPP was set as 100% transmission and the optical density of PRP was taken as 0% transmission. Maximal aggregation, i.e. the maximal change in optical density of the primary wave calculated in percent light transmission. From the study, it was determined that ADP, Ap3A, PAF(platelet activating factor) and collagen induced maximal aggregations at a concentration of 1×10^-5 M, 1×10^-4 M, 1.9×10^-7 M and 5 μg/kg, respectively. In the following studies, these aggregating agents were used at maximal dose. The effect of Ap4A on platelet aggregation by ADP and Ap3A were tested. In this time, Ap4A was pretreated for 1 or 10 min before the addition of aggregating agents. Also, after the platelet aggregation was induced by addition of ADP, PAF or collagen to PRP, the platelet aggregate dispersing effect of Ap4A was tested.
# [2] = words, cited from earlier work
# rats [3] = assay: Gradual hypotension during anesthesia in rats; type: in vivo, male SD rats; settings: rat, enflurane
# Protocol: Male SD rats (Charles River Japan Inc.) were anesthetized with intravenous thiopental 50 mg/kg as a bolus, followed by 1% enflurane in air.
# A femoral artery was catheterized to monitor the blood pressure and heart rate, while a femoral vein was catheterized for the administration of each of the test drugs.
# (§1) The control values were obtained before the administration of each test drug. Each test drug was then administered using a syringe in a dose-dependent manner for 15 minutes. The percentage (%) of the decrease of blood pressure was determined when stabilized. Changes in heart rate (H.R.) at the administration of each test drug were measured. Furthermore,the recovery of mean blood pressure after intravenous infusion of each test drug was also determined from the decrease in heart rate and the blood pressure at a maximum dose of each test drug.
# rats [4] = assay: Recovery of blood pressure after gradual hypotension in rats; type: in vivo, male SD rats; settings: rat
# Protocol: FIG. 1 is a graph showing the recovery of the blood pressure of rats anesthetized with enflurane with time, when each of Ap4A ( ), PG E1 ( ) and nitroglycerin ( ) was used as a test drug to attain gradual hypotension, with the blood pressure before the administration of each test drug being set 100% for reference.
# The recovery of blood pressure after gradual hypotension by use of each of Ap4A, PG E1 and nitroglycerin was also tested.
# as §1
# In a test similar to the above, each of Ap4A, PG E1, and nitroglycerin was administered to rats, so that about 65% fall in blood pressure, about 55% fall in blood pressure, and about 35% fall in blood pressure were stepwise attained. With respect to each agent, the recovery of blood pressure was tested.
# dogs = assay: Gradual hypotension during anesthesia in dogs (hemodynamics, blood gas); type: in vivo, mongrel dogs; settings: dog; for Arterial Carbonate Tension PaCO2 / Arterial Oxygen Tension PaO2 / Arterial pH (pH-a) / Body Temperature BT / Cardiac Output C.O. / Central Venous Pressure CVP / Dose / Heart Rate H.R. / Hematocrit Value Hct / Mean Blood Pressure B.P. (mean) / Mean Blood Pressure B.P. (Δ%) / Mixed Venous Carbonate Tension PvCO2 / Mixed Venous Oxygen Tension PvO2 / Mixed Venous pH (pH-v) / Pulmonary Artery Pressure PAM / Pulmonary Capillary Wedge Pressure PCWP: enflurane
# Protocol: Dogs were anesthetized with enflurane. […] The mean blood pressure (B.P.), heart rate (H.R.), cardiac output (C.O.), arterial oxygen tension (PaO2), mixed venos oxygen tension (PvO2), arterial carbonate tension (PaCO2), mixed venous carbonate tension (PvCO2), arterial pH (pH-a), mixed venous pH (pH-v), and base excess thereof were measured.
# Mongrel dogs weighing 9 to 17 kg were anesthetized with intravenous thiopental 20 mg/kg by bolus injection, followed by 1% enflurane in 40% O2 /N2 after endotracheal intubation. […] Bilateral femoral arteries were catheterized, one for the determination of blood pressure and the other for blood sampling.
# Access to the bilateral femoral veins was obtained for the administration of Ap4A, PG E1 or nitroglycerin and for the insertion of a ballon-tipped thermodilution catheter. The electrocardiogram was continuously monitored. The control values were obtained before the administration of each of the above-mentioned three agents. Each agent was administered using a syringe pump at titrated doses to produce gradual 20%, 40%, 50%, 60%, and 80% decreases in the mean arterial pressure (MAP) from the control value.
# After the target blood pressure and stable hemodynamic conditions were reached, the following parameters were measured: heart rate (HR), mean pulmonary artery pressure (PAM), pulmonary capillary wedge pressure (PCWP), and central venous pressure (CVP). Cardiac output (CO) was determined by the thermodilution method. Gas analyses of arterial and mixed venous bloods were performed using a blood gas analyzer.
compound,measurement,setting,value
"Nc1ncnc2c1ncn2[C@@H]1O[C@H](COP(=O)(O)OP(=O)(O)O)[C@@H](O)[C@H]1O [ADP, adenosine diphosphate, reference compound]",concentration inducing maximal platelet aggregation,[1],10 µM
"Nc1ncnc2c1ncn2[C@@H]1O[C@H](COP(=O)(O)OP(=O)(O)OP(=O)(O)OC[C@H]2O[C@@H](n3cnc4c(N)ncnc43)[C@H](O)[C@@H]2O)[C@@H](O)[C@H]1O [Ap3A, diadenosine 5', 5'""-p^1,p^4 -triphosphate, reference compound]",concentration inducing maximal platelet aggregation,[1],100 µM
FC(F)(F)C(Cl)Br (stereo not drawn) [Halothane],shortcomings / adverse effects,[2],hepatotoxicity and sthenia of brain pressure
"CCCCCCCCCCCCCCCCOCC(COP(=O)([O-])OCC[N+](C)(C)C)OC(C)=O (stereo not drawn) [PAF, reference compound]",concentration inducing maximal platelet aggregation,[1],0.19 µM
"CCCCC[C@H](O)/C=C/[C@H]1[C@H](O)CC(=O)[C@@H]1CCCCCCC(=O)O [PG E1, prostaglandin E1, reference compound]",Blood Pressure (Δ%),rats [3]; infusion 0.03 μg/kg/min,0%
same,Heart Rate (Δ%),rats [3]; infusion 0.03 μg/kg/min,0%
same,Blood Pressure (Δ%),rats [3]; infusion 0.1 μg/kg/min,0%
same,Heart Rate (Δ%),rats [3]; infusion 0.1 μg/kg/min,0%
same,Blood Pressure (Δ%),rats [3]; infusion 0.3 μg/kg/min,-1.9 ± 1.9%
same,Heart Rate (Δ%),rats [3]; infusion 0.3 μg/kg/min,-0.3 ± 0.3%
same,Blood Pressure (Δ%),rats [3]; infusion 1 μg/kg/min,-9.8 ± 3.1%
same,Heart Rate (Δ%),rats [3]; infusion 1 μg/kg/min,-1.2 ± 1.4%
same,Blood Pressure (Δ%),rats [3]; infusion 3 μg/kg/min,-26.2 ± 4.0%
same,Heart Rate (Δ%),rats [3]; infusion 3 μg/kg/min,-8.0 ± 3.4%
same,Blood Pressure (Δ%),rats [3]; infusion 10 μg/kg/min,-48.0 ± 2.7%
same,Heart Rate (Δ%),rats [3]; infusion 10 μg/kg/min,-13.6 ± 2.9%
same,recovered blood pressure (before administration = 100%),rats [4]; 15 minutes,about 85%
same,fall in blood pressure attained before recovery,rats [4]; stepwise,about 55%
same,rapidness of the recovery of blood pressure,rats [4]; order in words,Ap4A>PG E1 >nitroglycerin
same,Arterial Carbonate Tension PaCO2,dogs; at -20% blood pressure,37.3 ± 1.4 mmHg
same,Arterial Oxygen Tension PaO2,dogs; at -20% blood pressure,251.6 ± 8.3 mmHg
same,Arterial pH (pH-a),dogs; at -20% blood pressure,7.323 ± 0.015
same,Body Temperature BT,dogs; at -20% blood pressure,37.4 ± 0.6 °C
same,Cardiac Output C.O.,dogs; at -20% blood pressure,1.47 ± 0.18 L/min
same,Central Venous Pressure CVP,dogs; at -20% blood pressure,3.27 ± 0.59 mmHg
same,Dose,dogs; at -20% blood pressure,1.66 ± 0.48 µg/kg/min
same,Heart Rate H.R.,dogs; at -20% blood pressure,167.8 ± 8.6 beats/min
same,Hematocrit Value Hct,dogs; at -20% blood pressure,41.5 ± 2.9%
same,Mean Blood Pressure B.P. (mean),dogs; at -20% blood pressure,107.2 ± 5.3
same,Mean Blood Pressure B.P. (Δ%),dogs; at -20% blood pressure,-20.3 ± 0.4%
same,Mixed Venous Carbonate Tension PvCO2,dogs; at -20% blood pressure,41.3 ± 1.3 mmHg
same,Mixed Venous Oxygen Tension PvO2,dogs; at -20% blood pressure,51.0 ± 1.0 mmHg
same,Mixed Venous pH (pH-v),dogs; at -20% blood pressure,7.303 ± 0.009
same,Pulmonary Artery Pressure PAM,dogs; at -20% blood pressure,16.0 ± 3.8 mmHg
same,Pulmonary Capillary Wedge Pressure PCWP,dogs; at -20% blood pressure,9.0 ± 3.0 mmHg
same,Arterial Carbonate Tension PaCO2,dogs; at -40% blood pressure,36.0 ± 0.7 mmHg
same,Arterial Oxygen Tension PaO2,dogs; at -40% blood pressure,249.3 ± 6.0 mmHg
same,Arterial pH (pH-a),dogs; at -40% blood pressure,7.334 ± 0.012
same,Body Temperature BT,dogs; at -40% blood pressure,37.3 ± 0.6 °C
same,Cardiac Output C.O.,dogs; at -40% blood pressure,1.20 ± 0.14 L/min
same,Central Venous Pressure CVP,dogs; at -40% blood pressure,3.12 ± 0.47 mmHg
same,Dose,dogs; at -40% blood pressure,3.61 ± 1.01 µg/kg/min
same,Heart Rate H.R.,dogs; at -40% blood pressure,155.5 ± 9.1 beats/min
same,Hematocrit Value Hct,dogs; at -40% blood pressure,39.8 ± 3.3%
same,Mean Blood Pressure B.P. (mean),dogs; at -40% blood pressure,79.8 ± 4.6
same,Mean Blood Pressure B.P. (Δ%),dogs; at -40% blood pressure,-40.7 ± 0.5%
same,Mixed Venous Carbonate Tension PvCO2,dogs; at -40% blood pressure,39.7 ± 1.0 mmHg
same,Mixed Venous Oxygen Tension PvO2,dogs; at -40% blood pressure,50.0 ± 1.9 mmHg
same,Mixed Venous pH (pH-v),dogs; at -40% blood pressure,7.286 ± 0.012
same,Pulmonary Artery Pressure PAM,dogs; at -40% blood pressure,13.3 ± 3.0 mmHg
same,Pulmonary Capillary Wedge Pressure PCWP,dogs; at -40% blood pressure,6.8 ± 2.1 mmHg
same,Arterial Carbonate Tension PaCO2,dogs; at -50% blood pressure,36.9 ± 1.0 mmHg
same,Arterial Oxygen Tension PaO2,dogs; at -50% blood pressure,251.7 ± 9.3 mmHg
same,Arterial pH (pH-a),dogs; at -50% blood pressure,7.303 ± 0.017
same,Body Temperature BT,dogs; at -50% blood pressure,37.2 ± 0.6 °C
same,Cardiac Output C.O.,dogs; at -50% blood pressure,1.17 ± 0.11 L/min
same,Central Venous Pressure CVP,dogs; at -50% blood pressure,3.48 ± 0.56 mmHg
same,Dose,dogs; at -50% blood pressure,4.77 ± 1.14 µg/kg/min
same,Heart Rate H.R.,dogs; at -50% blood pressure,143.3 ± 7.3 beats/min
same,Hematocrit Value Hct,dogs; at -50% blood pressure,40.0 ± 3.5%
same,Mean Blood Pressure B.P. (mean),dogs; at -50% blood pressure,67.5 ± 3.4
same,Mean Blood Pressure B.P. (Δ%),dogs; at -50% blood pressure,-49.8 ± 0.2%
same,Mixed Venous Carbonate Tension PvCO2,dogs; at -50% blood pressure,41.6 ± 0.6 mmHg
same,Mixed Venous Oxygen Tension PvO2,dogs; at -50% blood pressure,53.3 ± 4.5 mmHg
same,Mixed Venous pH (pH-v),dogs; at -50% blood pressure,7.278 ± 0.015
same,Pulmonary Artery Pressure PAM,dogs; at -50% blood pressure,12.8 ± 2.7 mmHg
same,Pulmonary Capillary Wedge Pressure PCWP,dogs; at -50% blood pressure,6.7 ± 2.0 mmHg
same,Arterial Carbonate Tension PaCO2,dogs; at -60% blood pressure,36.8 ± 1.0 mmHg
same,Arterial Oxygen Tension PaO2,dogs; at -60% blood pressure,253.2 ± 11.92 mmHg
same,Arterial pH (pH-a),dogs; at -60% blood pressure,7.308 ± 0.022
same,Body Temperature BT,dogs; at -60% blood pressure,36.9 ± 0.7 °C
same,Cardiac Output C.O.,dogs; at -60% blood pressure,1.04 ± 0.10 L/min
same,Central Venous Pressure CVP,dogs; at -60% blood pressure,3.70 ± 0.76 mmHg
same,Dose,dogs; at -60% blood pressure,5.91 ± 1.49 µg/kg/min
same,Heart Rate H.R.,dogs; at -60% blood pressure,134.6 ± 7.2 beats/min
same,Hematocrit Value Hct,dogs; at -60% blood pressure,38.4 ± 4.5%
same,Mean Blood Pressure B.P. (mean),dogs; at -60% blood pressure,56.0 ± 4.3
same,Mean Blood Pressure B.P. (Δ%),dogs; at -60% blood pressure,-58.1 ± 1.3%
same,Mixed Venous Carbonate Tension PvCO2,dogs; at -60% blood pressure,40.6 ± 1.2 mmHg
same,Mixed Venous Oxygen Tension PvO2,dogs; at -60% blood pressure,49.9 ± 3.1 mmHg
same,Mixed Venous pH (pH-v),dogs; at -60% blood pressure,7.275 ± 0.016
same,Pulmonary Artery Pressure PAM,dogs; at -60% blood pressure,12.4 ± 3.4 mmHg
same,Pulmonary Capillary Wedge Pressure PCWP,dogs; at -60% blood pressure,6.2 ± 2.2 mmHg
same,effect on arterial pH / venous pH,dogs; result in words,significantly decrease arterial pH or have a tendency to decrease arterial pH
same,effect on carbonate tension,dogs; result in words,almost no effects on the oxygen tension and carbonate tension
same,effect on heart rate,dogs; result in words,tendency to increase the heart rate when a 20% or less fall in blood pressure is attained
same,effect on oxygen tension,dogs; result in words,almost no effects on the oxygen tension and carbonate tension
"O=C1N(Cc2ccccc2)C2C[S+]3CCCC3C2N1Cc1ccccc1 (stereo not drawn) [trimethaphan, Trimethaphan]",shortcomings / adverse effects,[2],"renal insufficiency because of tubular impairment near the kidney, tachyphylaxis, tachycardia, and mydriasis after its use"
same,shortcomings / adverse effects,[2]; listed as Trimethaphan,"cardiac contractility, cardiac output, and coronary blood flow are decreased by the ganglionic blockade thereof and histamine liberation effect is increased"
collagen [reference compound],concentration inducing maximal platelet aggregation,[1],5 µg/kg
